Source: patent publication US5175283A, “Azetidin-2-one derivatives as serine protease inhibitors” (Bristol-Myers Squibb Company, priority 1992, dated 1992)
Counter-ions that a name gives are not always drawn. Like-named read-outs stand apart in the source and are kept apart here.

Assays:
Type in all cases: biochemical
human α-thrombin [1] = target: T1, human α-thrombin (Homo sapiens, UniProt P00734); test: Enzyme assay for the inhibition of thrombin (s-2238 substrate); conditions: for IC50: 3 min incubation of drug with enzyme, room temperature; for Thrombin k2 /ki (second order rate constant for inactivation of the enzyme): human α-thrombin, s-2238, pH 7.4, room temperature
T1 construct: purified human α-thrombin dissolved in thrombin assay buffer
Description: 1. Enzyme Assays for the Inhibition of Thrombin The following reagents were used in these assays: Thrombin assay buffer: 145 mM NaCl, 5 mM KCl, 30 mM N-2-hydroxyethyl piperazine-N'-2-ethanesulfonic acid, pH 7.4, 1 mg/ml polyethylene glycol (PEG-8000). 3 mM D-Phe-Pip-Arg-p-nitroanilide (s-2238) in H2 O. 3 U/ml purified human α-thrombin dissolved in thrombin assay buffer. Inhibitors to be tested were dissolved in H2 O, methanol, or DMSO just prior to use. Assay Procedure To each well in a 96-well microtiter plate, 270 μl of assay buffer was added. Human α-thrombin (10 μl of 3 U/ml) was added, then 10 μl of inhibitor were added and mixed. The samples were incubated at room temperature for a defined period of time (3 min for initial IC50 determinations). The enzymic reaction was started with 10 μl of 3 mM s-2238 substrate and continued at room temperature. The change in optical density was measured at 405 nm. A kinetic microplate reader (Molecular Devices Corporation Vmax) was used to measure the change in optical density over time. Results are reported in Table 1 as IC50 values, i.e., the drug concentration in mole/liter which caused 50% inhibition of the enzyme activity (after incubation of the drug with the enzyme for 3 min). Alternatively, results are also reported in Table 1 expressed as k2 /ki which is the second order rate constant in per mole per minute for inactivation time of the enzyme [Kitz, et al., J. Biol. Chem., 237, 3245 (1962)].

[2] = target: T2, bovine pancreatic trypsin (Bos taurus, UniProt P00760); test: Enzyme assay for the inhibition of trypsin (Z-Val-Gly-Arg-pNA substrate)
T2 construct: purified bovine pancreatic trypsin dissolved in trypsin assay buffer
T2 sequence (P00760 24-246): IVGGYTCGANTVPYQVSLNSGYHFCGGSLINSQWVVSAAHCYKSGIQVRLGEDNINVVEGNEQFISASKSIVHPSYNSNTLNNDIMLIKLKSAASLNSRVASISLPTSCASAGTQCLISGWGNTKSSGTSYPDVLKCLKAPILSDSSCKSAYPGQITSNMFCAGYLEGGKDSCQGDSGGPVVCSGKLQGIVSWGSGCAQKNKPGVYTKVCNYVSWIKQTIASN
Description: 2. Enzyme Assays for the Inhibition of Trypsin
The following reagents were used in these assays:
Trypsin assay buffer: 2 mM CaCl2, 50 mM Tris/Cl pH 8.0.
3 mM Z-Val-Gly-Arg-pNA (Chromzyme TRy) dissolved in H2 O.
6 μg/ml of purified bovine pancreatic trypsin dissolved in trypsin assay buffer.
Inhibitors to be tested were dissolved in H2 O, methanol or DMSO just prior to use.
To each well in a 96-well microtiter plate, 270 μl of assay buffer was added. Bovine trypsin (10 μl of 6 μg/ml) was added. Inhibitor (10 μl ) was added, mixed, and then incubated at room temperature for 3 min. The enzymic reaction was started with 10 μl of 3 mM Z-Val-Gly-Arg-pNA substrate. The change in optical density was measured at 405 nm at room temperature. A kinetic microplate reader (Molecular Devices Corporation Vmax) was used to measure the change in optical density over time.
Results are reported in Table 1 as IC50 values, i.e., the drug concentration in mole/liter which caused 50% inhibition of the enzyme activity (after incubation of the drug with the enzyme for 3 min).

human α-thrombin [3] = target: T1, human α-thrombin; test: Concentration required for doubling thrombin clotting time in human plasma; conditions: human citrated plasma, 10 U/ml human thrombin; read-out: ED50, drug concentration required to double clotting time
Description: Procedure for Determining the Concentration Required for Doubling Thrombin Clotting Time--Clotting Time Assays The following reagents were used in these assays: Owren's Veronal Buffer: 125 mM NaCl, 28.4 mM sodium barbital, pH 7.35. Human citrated plasma obtained from human volunteers or citrated plasma obtained from IP-dosed animals (prepared as described below). 10 NIH Units/ml human α-thrombin in thrombin buffer for use with human plasma. […] The blood was centrifuged at […] (480×g) for 15 min at room temperature (using a Sorvall RT 6000B centrifuge). The plasma was removed, pooled, and aliquoted into small tubes which were stored frozen for later use. Clotting Time Measurement Clotting times were determined by pipetting 0.1 ml of Owren's buffer (pre-warmed 37° C.) and 0.1 ml of human or rat plasma into yellow sample cuvettes. For studies with human plasma 10 U/ml human thrombin (10 ml) was placed in the reservoir assembly station of the MLA 700. (Medical Laboratory Automation, Electra 700 Reservoir Assembly). For rat studies, the human thrombin concentration was 25 U/ml. The cuvettes were vortexed and then placed on the MLA 700 sample wheel. The coagulation timer (MLA 700) automatically dispenses 0.1 ml human thrombin into the sample in each cuvette. Detection of the fibrin clot was determined optically by the MLA 700. Studies were performed to determine the concentration of drug which caused a doubling of the clotting time in human plasma. From standard curves of thrombin activity added to the sample versus the clotting time, the concentration of drug which caused a doubling of the thrombin clotting time corresponded to inhibition of approximately 1/2 of the added thrombin clotting activity. Results are reported in Table 1 as ED50 values, i.e., the drug concentration required to double clotting time.

[4] = 3 min incubation of drug with enzyme, room temperature, pH 8.0, read-out: Trypsin IC50

SMILES | IC50 (human α-thrombin [1]) | Thrombin k2 /ki (second order rate constant for inactivation of the enzyme) (human α-thrombin [1]) | IC50 [2, 4] | IC (2-fold clotting time) (human α-thrombin [3]) | IC50 [2]
COC(=O)[C@H]1[C@H](CCCNC(=N)N)C(=O)N1S(=O)(=O)c1cccc2c(N(C)C)cccc12 (relative stereo) [III, trans-4-Methoxycarbonyl-3-(3-guanidinopropyl)-1-[(5-dimethylamino)-1-naphthalenesulfonyl]-2-azetidinone hydrochloride salt] | 0.016 µM | 2.1 × 10^7 m^-1 min^-1 | 0.72 µM | 50 µM | –
COC(=O)[C@H]1[C@H](CCCNC(=N)N)C(=O)N1C(=O)Nc1ccccc1 (relative stereo) [V, trans-4-Methoxycarbonyl-3-(3-quanidinopropyl)-1-phenylaminocarbonyl-2-azetidinone hydrochloride salt] | 1.7 µM | 8.3 × 10^4 m^-1 min^-1 | 0.005 µM | 30 µM | –
CC(=O)N1C(=O)[C@@H](CCCNC(=N)N)[C@@H]1S(=O)(=O)c1ccccc1 (relative stereo) [VI, trans-4-Phenylsulfonyl-3-guanidinopropyl-1-acetyl-2-azetidine hydrochloride salt] | 0.0032 µM | 3.0 × 10^6 m^-1 min^-1 | 0.75 µM | 15 µM | –
CCS[C@H]1[C@H](CCCNC(=N)N)C(=O)N1C(C)=O (relative stereo) [VII, trans-4-Ethylthio-3-quanidinopropyl-1-acetyl-2-azetidinone hydrochloride salt] | 0.0125 µM | 5.6 × 10^6 m^-1 min^-1 | 0.036 µM | 0.75 µM | –
CN(C)c1cccc2c(S(=O)(=O)N3C(=O)[C@@H](CCCNC(=N)N)[C@@H]3C(=O)N3CCCCC3)cccc12 (relative stereo) [XII, trans-4-(1-Piperidinocarbonyl)-3-guanidinooropyl-1-[(5-dimethylamino)-1-naphthalenesulfonyl]-2-azetidinone hydrochloride salt] | 0.01 µM | 2.8 × 10^6 m^-1 min^-1 | 0.014 µM | 30 µM | –
Cc1ccc(S(=O)(=O)N2C(=O)[C@@H](CCCNC(=N)N)[C@@H]2C(=O)N2CCCCC2)cc1 (relative stereo) [XIII, trans-4-(1-Piperidinocarbonyl)-3-guanidinooropyl-1-p-toluenesulfonyl-2-azetidinone hydrochloride salt] | 0.003 µM | 4.5 × 10^7 m^-1 min^-1 | 0.12 µM | 80 µM | –
CC(=O)N1C(=O)[C@@H](CCCNC(=N)N)[C@@H]1C(=O)O (relative stereo) [XIV, trans-4-Carboxy-3-quanidinopropyl-1-acetyl-2-azetidinone hydrochloride salt] | 0.39 µM | – | 0.012 µM | 12 µM | –
CC(=O)N1C(=O)[C@@H](CCCNC(=N)N)[C@@H]1CCc1ccccc1 (relative stereo) [XV, trans-4-(2-Phenylethyl)-3-guanidinooropyl-1-acetyl-2azetidinone hydrochloride salt] | 0.21 µM | 1.5 × 10^6 m^-1 min^-1 | 0.47 µM | 3 µM | –
CC(=O)N1C(=O)[C@@H](CCCNC(=N)N)[C@@H]1C(=O)Nc1ccc(C)cc1 (relative stereo) [XVI, trans-4-(4-Methylbenzeneaminocarbonyl)-3-guanidinopropyl-1-acetyl-2-azetidinone hydrochloride salt] | 0.025 µM | 1.3 × 10^6 m^-1 min^-1 | 0.12 µM | 0.5 µM | –
CC(=O)OC1C(CCCNC(=N)N)C(=O)N1C(C)=O (stereo not drawn) [XX, 4-Acetyloxy-3-quanidinopropyl-1-acetyl-2-azetidinone hydrochloride salt] | 0.012 µM | 4.2 × 10^7 m^-1 min^-1 | – | 0.34 µM | 0.012 µM
